Reference: US20040192734A1, “4-(3-aminomethylphenyl)piperidin-1-yl]-[5-(2-fluorophenylethynyl)furan-2-yl]-methanone as an inhibitor of mast cell tryptase” (AVENTIS PHARMACEUTICALS INC., priority 2002, published 2004)
“And” between values parts separate entries of the source, which are not always exact repeats. Equal values may be shown once. Where a name gives a salt, the structure may show the parent alone. Read-outs that look alike come from different tables or passages of the source.

Assays:
[1] = system: Airway Hyperresponsiveness (AHR) to histamine in sensitized guinea pigs; assay: Guinea Pig Model of Airway Hyperreactivity; assay type: in vivo; conditions: for protection against AHR to histamine, airway resistance: oral dosing, Structure (III) where X=H dosed at 3, 10, and 30 mg/kg; for protection against AHR to histamine, airway resistance / Oral ID50 Dynamic Lung Compliance / Oral ID50 Airway Hyperresponsiveness: 2 hours prior to ovalbumin challenge; for Oral ID50 Dynamic Lung Compliance: Cdyn40; for Oral ID50 Airway Hyperresponsiveness: airway resistance (RL300)
Experimental: Sensitization and drug treatment: Male Hartley guinea pigs (225-250g) are sensitized with ovalbumin (0.5 mL of 1% solution, i.p. and s.c.). On day 4, animals received a booster injection (i.p.) of 0.5 mL of 1% ovalbumin. On day 21, animals are orally dosed (2 ml/kg) with either vehicle (0.5% methylcellulose/0.2% Tween 80) or test compound 2 hours prior to antigen challenge. Thirty minutes before antigen challenge the animals are also injected with mepyramine (30 mg/kg, i.p.) to prevent anaphylactic collapse. Animals are then exposed for 5 minutes to an aerosol of either saline (control animals) or 1% ovalbumin using a deVilbiss Ultraneb nebulizer.
AHR measurement: Eighteen to twenty four hours after challenge, animals are anesthetized with a combination of ketamine (133 mg/kg) and xylazine (24 mg/kg) given intramuscularly, surgically prepared and then mounted in a whole body plethysmograph for lung function measurement. Animals were connected to Ugo-Basile ventilators delivering a tidal volume of 1 mL/100 g at a rate of 50 breaths/minute via a tracheal cannula. The jugular vein is also cannulated for histamine challenge. A water filled oesophageal cannula is placed such that transpulmonary pressure could be recorded. Transpulmonary pressure is measured as the difference between the tracheal and esophageal cannulas using a differential pressure transducer. The volume, airflow, and transpulmonary pressure signals are monitored using a pulmonary analysis system (Buxco XA software) and used to calculate pulmonary resistance (cm H2O/mL/s) and dynamic compliance (mL/cm H2O). Airway resistance and dynamic compliance were computed on a breath by breath basis. Histamine is administered intravenously and reactivity to increasing concentrations (0.1-10 μg/kg) assessed. ID50's are estimated from the RL300 (histamine concentration required to 300% increase in lung resistance) and Cdyn40 (histamine concentration required to induce a 40% decrease in dynamic lung compliance) parameters deduced from the individual […] a histamine dose-response curves.

[2] = biological target: T1, recombinant human β tryptase (Homo sapiens, UniProt Q15661); assay: β-Tryptase Inhibition (chromogenic assay); assay type: biochemical; conditions: for Ki: chromogenic assay, substrate S2366 0.5 mM, room temperature, Ki calculated from IC50
T1 construct: made in house; host or cells: yeast cells
Description: Tr0yptase inhibition activity is confirmed using either isolated human lung tryptase or recombinant human β tryptase expressed in yeast cells. Essentially equivalent results are obtained using isolated native enzyme or the expressed enzyme. The assay procedure employs a 96 well microplate (Costar 3590) using L-pyroglutamyl-L-prolyl-L-arginine-para-nitroanilide (S2366: Quadratech) as substrate (essentially as described by McEuen et. al. Biochem Pharm, 1996, 52, pages 331-340). Assays are performed at room temperature using 0.5 mM substrate (2×Km) and the microplate is read on a microplate reader (Beckman Biomek Plate reader) at 405 nm wavelength. The inhibition constants (Ki) for the compound of the present invention and other structurally related compounds, are set forth in Table 1.
Materials and Methods for Trtase Primary Screen (Chromogenic Assay)
S2366 (Stock solutions of 2.5 mM).
Purified recombinant beta Tryptase Stocks of 310 μg/mL.
Add 60 μL of diluted substrate (final concentration of 500 μM in assay buffer) to each well
Add compound in duplicates, final concentration of 20 μM, volume 20 μL
Add enzyme at a final concentration of 50 ng/mL in a volume of 20 μL
Total volume for each well is 100 μL
Agitate briefly to mix and incubate at room temp in the dark for 30 minutes
Read absorbencies at 405 nM
Protocol (IC50 and Ki Determination)
The protocol is essentially the same as above except that the compound is added in duplicates at the following final concentrations: 0.01, 0.03, 0.1, 0.3, 1, 3, 10 uM (All dilutions carried out manually). For every assay, whether single point or IC50 determination, a standard compound is used to derive IC50 for comparison. From the IC50 value, the Ki can be calculated using the following formula:
Ki=IC50/(1+[Substrate]/Km).

[3] = system: Airway Hyperresponsiveness (AHR) to histamine in sensitized guinea pigs; assay: Guinea Pig Model of Airway Hyperreactivity; assay type: in vivo; conditions: for protective effect as measured by airway resistance / protective effect as measured by lung compliance: intravenous dosing at 0.3, 1 and 3 mg/kg; for Intravenous ID50 Dynamic Lung Compliance: Cdyn40, histamine challenge; for Intravenous ID50 Dynamic Lung Compliance / Intravenous ID50 Airway Hyperresponsiveness: ovalbumin-sensitized guinea pigs; for Intravenous ID50 Airway Hyperresponsiveness: airway resistance (RL300), histamine challenge
[4] = biological target: T1, recombinant human β tryptase; conditions: greatest β-Tryptase inhibitory potency disclosed in U.S. application Ser. No. 09/843,126; cited from earlier work
[5] = listed as compound of the present invention, trifluoroacetate

T1 sequence (Q15661 31-275): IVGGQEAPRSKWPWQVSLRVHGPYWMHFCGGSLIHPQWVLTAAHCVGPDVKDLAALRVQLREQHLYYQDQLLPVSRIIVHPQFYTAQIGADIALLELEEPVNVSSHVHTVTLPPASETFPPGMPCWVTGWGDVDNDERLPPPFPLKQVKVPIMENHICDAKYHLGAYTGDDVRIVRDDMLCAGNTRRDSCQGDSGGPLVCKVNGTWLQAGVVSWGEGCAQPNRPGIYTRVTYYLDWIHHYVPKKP

| Structure (SMILES) | protection against AHR to histamine, airway resistance [1] | Oral ID50 Dynamic Lung Compliance [1] [mg/kg] | Oral ID50 Airway Hyperresponsiveness [1] | Ki [2] | protective effect as measured by airway resistance [3] | protective effect as measured by lung compliance [3] | Intravenous ID50 Dynamic Lung Compliance [3] [mg/kg] | Intravenous ID50 Airway Hyperresponsiveness [3] [mg/kg] | further results |
| --- | --- | --- | --- | --- | --- | --- | --- | --- | --- |
| NCc1cccc(C2CCN(C(=O)c3ccc(C#Cc4ccccc4F)o3)CC2)c1 [Structure (III) where X = F, [4-(3-Aminomethylphenyl)piperidin-1-yl]-[5-(2-fluorophenylethynyl)furan-2-yl]-methanone trifluoroacetate] | significantly protects against AHR to histamine | 1 to 2 | 1 to 2 mg/kg | 7.6 to 9.7 nM and 7.6 nM and 9.7 nM | protective at all doses | protective at all doses | – | – | effect on basal airway resistance ([1]; sensitized guinea pigs): no effect; effect on basal dynamic lung compliance ([1]; sensitized guinea pigs): no effect; Intravenous ID50 Dynamic Lung Compliance [3, 5]: < 0.3 mg/kg; Intravenous ID50 Dynamic Lung Compliance ([3]; trifluoroacetate): <0.3 mg/kg; Intravenous ID50 Airway Hyperresponsiveness [3, 5]: < 0.3 mg/kg; Intravenous ID50 Airway Hyperresponsiveness ([3]; trifluoroacetate): <0.3 mg/kg |
| NCc1cccc(C2CCN(C(=O)c3cccc(C#Cc4ccccc4)c3)CC2)c1.O=C(O)C(F)(F)F [Structure (II) where X = H, [4-(3-aminomethylphenyl)piperidin-1-yl]-(3-phenylethynylphenyl)methanone trifluoroacetate] | – | – | – | 106 nM | uniformly ineffective | does not show any protective effects | >3.0 | >3.0 | – |
| NCc1cccc(C2CCN(C(=O)c3ccc(C#Cc4ccccc4)o3)CC2)c1.O=C(O)C(F)(F)F [Structure (III) where X = H, [4-(3-aminomethylphenyl)piperidin-1-yl]-(5-phenylethynylfuran-2-yl)methanone trifluoroacetate] | protective on airway resistance, but the effects are not statistically significant | >30 | Protective at 3, | 31 nM | reversed airway resistance at the highest dose | does not show any protective effects | >3.0 | 1 to 3 | effect on lung compliance ([1]; oral dosing at 3, 10, and 30 mg/kg): No effect; fold increase in β-Tryptase inhibitory potency ([2]; Structure (III) where X=H versus Structure (II) where X=H): 3.42 fold |
| NCc1cccc(C2CCN(C(=O)c3cccc(C#Cc4ccccc4F)c3)CC2)c1.O=C(O)C(F)(F)F [Structure (II) where X=F, [4-(3-aminomethylphenyl)piperidin-1-yl]-[3-(2-fluorophenylethynyl)phenyl]methanone trifluoroacetate] | – | – | – | 97 nM | – | – | – | – | fold increase in β-Tryptase inhibitory potency ([2]; Structure (II) where X=F versus Structure (II) where X=H): 1.09 fold |
| NCc1cccc(C2CCN(C(=O)c3ccc(Cl)c(Cl)c3)CC2)c1 [[4-(3-Aminomethylphenyl)piperidin-1-yl]-(3,4-dichlorophenyl) methanonetrifluoroacetate] | – | – | – | – | – | – | – | – | Ki [4]: 31 nM |
